In article PMC5598522 (Toxicology Reports, 2014):

Key:
[1] = Quantitative whole body autoradiography; assay type: in vivo, rat; conditions: [3H] Ticagrelor 3 mg/kg
[2] = Human free systemic Cmax in clinical studies; assay type: in vivo; conditions: based on 99.2% protein binding
platelet aggregation = conditions: humans, 100 mg b.i.d., at 4, 12 and 24 h; cited from earlier work
[3] = pregnant female rat (Day 18 of gestation), 5 min
[4] = pregnant female rat (Day 18 of gestation), 0.5 h
[5] = pregnant female rat (Day 18 of gestation), 2 h
[6] = pregnant female rat (Day 18 of gestation), 4 h

## CCCSc1nc(N[C@@H]2C[C@H]2c2ccc(F)c(F)c2)c2nnn([C@@H]3C[C@H](OCCO)[C@@H](O)[C@H]3O)c2n1 [Ticagrelor]
[1]; male rat, 2 h
  Heart radioactivity, fold of blood value: 3.74 fold of blood value
  Kidney radioactivity: 2.22 μg equivalent/g
  Kidney radioactivity, fold of blood value: 4.79 fold of blood value
  Liver radioactivity: 3.20 μg equivalent/g
  Liver radioactivity, fold of blood value: 6.97 fold of blood value
  Lung radioactivity: 2.09 μg equivalent/g
  Lung radioactivity, fold of blood value: 4.51 fold of blood value
  Pancreas radioactivity: 2.78 μg equivalent/g
  Pancreas radioactivity, fold of blood value: 6.00 fold of blood value
  Pituitary gland radioactivity: 1.84 μg equivalent/g
  Pituitary gland radioactivity, fold of blood value: 3.97 fold of blood value
  Salivary gland radioactivity: 2.14 μg equivalent/g
  Salivary gland radioactivity, fold of blood value: 4.62 fold of blood value
  Skeletal muscle radioactivity: 1.48 μg equivalent/g
  Skeletal muscle radioactivity, fold of blood value: 3.20 fold of blood value
  Spinal cord radioactivity: 0.02 μg equivalent/g
  Spinal cord radioactivity, fold of blood value: 0.04 fold of blood value
  Spleen radioactivity: 1.51 μg equivalent/g
  Spleen radioactivity, fold of blood value: 3.29 fold of blood value
  Stomach wall radioactivity: 2.31 μg equivalent/g
  Stomach wall radioactivity, fold of blood value: 4.99 fold of blood value
  Thymus radioactivity: 1.37 μg equivalent/g
  Thymus radioactivity, fold of blood value: 2.96 fold of blood value
  Thyroid gland radioactivity: 2.60 μg equivalent/g
  Thyroid gland radioactivity, fold of blood value: 5.62 fold of blood value
[1]; male rat, 4 h
  Adrenal gland radioactivity: 0.81 μg equivalent/g
  Adrenal gland radioactivity, fold of blood value: 2.24 fold of blood value
  Blood (LSC) radioactivity: 0.361 μg equivalent/g
  Brain radioactivity: 0.02 μg equivalent/g
  Brain radioactivity, fold of blood value: 0.06 fold of blood value
  Brown fat radioactivity: 0.52 μg equivalent/g
  Brown fat radioactivity, fold of blood value: 1.44 fold of blood value
  Eye radioactivity: 0.14 μg equivalent/g
  Eye radioactivity, fold of blood value: 0.39 fold of blood value
  Kidney radioactivity: 1.74 μg equivalent/g
  Kidney radioactivity, fold of blood value: 4.87 fold of blood value
  Liver radioactivity: 2.42 μg equivalent/g
  Liver radioactivity, fold of blood value: 6.70 fold of blood value
  Lung radioactivity: 1.55 μg equivalent/g
  Lung radioactivity, fold of blood value: 4.29 fold of blood value
  Pancreas radioactivity: 2.08 μg equivalent/g
  Pancreas radioactivity, fold of blood value: 5.76 fold of blood value
  Pituitary gland radioactivity: 1.65 μg equivalent/g
  Pituitary gland radioactivity, fold of blood value: 4.57 fold of blood value
  Salivary gland radioactivity: 1.59 μg equivalent/g
  Salivary gland radioactivity, fold of blood value: 4.40 fold of blood value
  Skeletal muscle radioactivity: 1.16 μg equivalent/g
  Skeletal muscle radioactivity, fold of blood value: 3.21 fold of blood value
  Spinal cord radioactivity: 0.02 μg equivalent/g
  Spinal cord radioactivity, fold of blood value: 0.06 fold of blood value
  Spleen radioactivity: 0.82 μg equivalent/g
  Spleen radioactivity, fold of blood value: 2.27 fold of blood value
  Stomach wall radioactivity: 1.32 μg equivalent/g
  Stomach wall radioactivity, fold of blood value: 3.66 fold of blood value
  Thymus radioactivity: 1.33 μg equivalent/g
  Thymus radioactivity, fold of blood value: 3.68 fold of blood value
  Thyroid gland radioactivity: 1.19 μg equivalent/g
  Thyroid gland radioactivity, fold of blood value: 3.30 fold of blood value
[1]; [3]
  Blood (LSC) radioactivity: 2.474 μg equivalent/g
  Fetus radioactivity: 0.03 μg equivalent/g
  Fetus radioactivity, fold of blood value: 0.01 fold of blood value
  Placenta radioactivity: 6.42 μg equivalent/g
  Placenta radioactivity, fold of blood value: 2.59 fold of blood value
[1]; [4]
  Blood (LSC) radioactivity: 0.864 μg equivalent/g
  Fetus radioactivity: 0.06 μg equivalent/g
  Fetus radioactivity, fold of blood value: 0.07 fold of blood value
  Placenta radioactivity: 2.86 μg equivalent/g
  Placenta radioactivity, fold of blood value: 3.31 fold of blood value
[1]; [5]
  Blood (LSC) radioactivity: 0.282 μg equivalent/g
  Fetus radioactivity: 0.07 μg equivalent/g
  Fetus radioactivity, fold of blood value: 0.25 fold of blood value
  Placenta radioactivity: 1.02 μg equivalent/g
  Placenta radioactivity, fold of blood value: 3.62 fold of blood value
[1]; [6]
  Blood (LSC) radioactivity: 0.24 μg equivalent/g
  Fetus radioactivity: 0.03 μg equivalent/g
  Fetus radioactivity, fold of blood value: 0.13 fold of blood value
  Placenta radioactivity: 0.39 μg equivalent/g
  Placenta radioactivity, fold of blood value: 1.63 fold of blood value
[1]; rats
  Brain and spinal tissue penetration (QWBA conclusion): effectively excluded from the brain and spinal tissues by the blood brain barrier
  Radioactivity levels in brain, spinal cord and fetus: < 0.25 fold of blood levels
[2]
  Human free systemic Cmax: 12 nM
Platelet aggregation
  Inhibition of platelet aggregation: greater than 90%
